The values that follow come from PubChem BioAssay (NCI).

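A five-concentration, 48-hour dose response in 96-well plates underlies each endpoint, interpolated linearly between surrounding concentrations. Abbreviation: GI50, concentration required for 50% inhibition of growth. TGI: concentration producing complete growth inhibition.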 A value given as a limit tells only on which side of the number the result lay.

Some test systems named below: OVCAR-4 ovarian; SF-295 CNS; HS 578T breast; HL-60(TB) leukemia; SK-OV-3 ovarian; MDA-MB-231 breast; NCI-H226 lung; COLO 205 colon; CCRF-CEM leukemia; SN12C renal.
Common to all, as to assay: growth of human tumour cells (NCI), 48 h

Regarding `C/C1=C/C(=O)O[C@@H]2C[C@@H](CC[C@H](C)/C=C\C=C\CC1)O[C@@](O)([C@@H]1CSC(=O)N1CO)C2`, the GI50 with OVCAR-4 ovarian is 176 nM; in the assay on SF-295 CNS, 41.4 nM; with HS 578T breast it was 17.4 nM; with HL-60(TB) leukemia, 253 nM; in the assay with SK-OV-3 ovarian, 50.4 nM; in the assay on MDA-MB-231 breast it was 63.4 nM. For the same compound, the GI50 with NCI-H226 lung is 104 nM; in the assay with COLO 205 colon, 37.4 nM; with CCRF-CEM leukemia, 87.2 nM; in the assay with SN12C renal, 48.5 nM. The TGI was 20400 nM in the assay on OVCAR-4 ovarian; 20500 nM with SF-295 CNS; 60.6 nM in the assay on HS 578T breast; 18800 nM with HL-60(TB) leukemia; 404 nM in the assay on SK-OV-3 ovarian; more than 60400 nM in the assay on MDA-MB-231 breast. For the same compound, the TGI in the assay with NCI-H226 lung is more than 100000 nM; in the assay on COLO 205 colon it was 146 nM; in the assay on CCRF-CEM leukemia, more than 41400 nM; in the assay on SN12C renal, more than 57400 nM.

As to `O=C1/C=C/[C@@H](O)[C@@H]2C[C@@H](O)C[C@H]2/C=C/CCC[C@H](CCc2ccc(C(F)(F)F)cc2)O1`, the GI50 in the assay with OVCAR-4 ovarian was 198 nM; in the assay on SF-295 CNS it was 188 nM; in the assay with HS 578T breast it was 60.2 nM; in the assay with HL-60(TB) leukemia, 346 nM; in the assay with SK-OV-3 ovarian, 279 nM; in the assay on MDA-MB-231 breast, 185 nM. Also, the GI50 in the assay with NCI-H226 lung is 53.9 nM; in the assay on COLO 205 colon, 175 nM; with CCRF-CEM leukemia, 314 nM; in the assay on SN12C renal, 329 nM. In addition, the TGI was 2780 nM with OVCAR-4 ovarian; 47800 nM with SF-295 CNS; more than 27200 nM in the assay with HS 578T breast; 2740 nM in the assay with HL-60(TB) leukemia; 30200 nM with SK-OV-3 ovarian; 368 nM in the assay with MDA-MB-231 breast. Also, the TGI in the assay with NCI-H226 lung was 513 nM; with COLO 205 colon, 319 nM; with CCRF-CEM leukemia, 49000 nM; in the assay on SN12C renal, more than 36500 nM.

Take `CCCCCCCCCCCCNC(=O)[C@H]1CSC(c2cc3ccccc3s2)N1` (stereo not given in full): the GI50 in the assay on OVCAR-4 ovarian was 849 nM; in the assay on SF-295 CNS, 3520 nM; with HS 578T breast it was 777 nM; in the assay with HL-60(TB) leukemia it was 154 nM; with SK-OV-3 ovarian, 4160 nM; in the assay on MDA-MB-231 breast, 706 nM. Besides, the GI50 in the assay with NCI-H226 lung is 3000 nM; in the assay with COLO 205 colon it was 6460 nM; with CCRF-CEM leukemia, 725 nM; in the assay on SN12C renal it was 2800 nM. Besides, the TGI is 1970 nM with OVCAR-4 ovarian; 8330 nM in the assay on SF-295 CNS; 1860 nM in the assay on HS 578T breast; 8690 nM in the assay with HL-60(TB) leukemia; 8380 nM in the assay with SK-OV-3 ovarian; 1460 nM in the assay with MDA-MB-231 breast. Further, the TGI with NCI-H226 lung was 7880 nM; in the assay with COLO 205 colon, 12300 nM; in the assay with CCRF-CEM leukemia, 1680 nM; with SN12C renal, 7240 nM.

For `CN[C@@H](C)C(=O)N[C@H]1CN(C(=O)CC(C)C)CC[C@H]2CC[C@@H](C(=O)NC(c3ccccc3)c3ccccc3)N2C1=O`, the GI50 was 664 nM in the assay on OVCAR-4 ovarian; more than 100000 nM in the assay on SF-295 CNS; more than 81700 nM in the assay on HS 578T breast; 29100 nM in the assay with HL-60(TB) leukemia; 156 nM with SK-OV-3 ovarian; 642 nM in the assay with MDA-MB-231 breast. For the same compound, the GI50 is more than 100000 nM in the assay with NCI-H226 lung, more than 79800 nM in the assay with COLO 205 colon, more than 100000 nM with CCRF-CEM leukemia and more than 100000 nM with SN12C renal. Besides, the TGI in the assay on OVCAR-4 ovarian was 8420 nM; with SF-295 CNS it was more than 100000 nM; in the assay with HS 578T breast, more than 100000 nM; in the assay on HL-60(TB) leukemia, more than 100000 nM; in the assay with SK-OV-3 ovarian, 1040 nM; in the assay with MDA-MB-231 breast, 5700 nM. Besides, the TGI in the assay with NCI-H226 lung, in the assay on COLO 205 colon, in the assay with CCRF-CEM leukemia and with SN12C renal was more than 100000 nM throughout.

Consider `Cc1cccc(-c2nn3c(c2-c2ccnc4ccc(C(N)=O)cc24)CCC3)n1`, for which the GI50 in the assay on OVCAR-4 ovarian, with SF-295 CNS, in the assay with HS 578T breast, in the assay on HL-60(TB) leukemia, with SK-OV-3 ovarian and with MDA-MB-231 breast was more than 100000 nM each time. The GI50 in the assay with NCI-H226 lung, in the assay on COLO 205 colon, in the assay with CCRF-CEM leukemia and with SN12C renal was more than 100000 nM in each case. The TGI in the assay on OVCAR-4 ovarian, in the assay on SF-295 CNS, with HS 578T breast, with HL-60(TB) leukemia, in the assay on SK-OV-3 ovarian and with MDA-MB-231 breast was more than 100000 nM in each case. Further, the TGI in the assay with NCI-H226 lung, in the assay on COLO 205 colon, in the assay on CCRF-CEM leukemia and in the assay on SN12C renal was more than 100000 nM throughout.
